Assay results published in publication PMC10243163, “A frog‐derived antimicrobial peptide as a potential anti‐biofilm agent in combating Staphylococcus aureus skin infection” (Journal of Cellular and Molecular Medicine, 2023).
In brackets after ≈: the same amount, converted by molar mass. Positions of bridges follow the written chain, without caps; N, C: chain ends. Residues, ends and D or L forms follow the SMILES beside them.

How the values were obtained:
[1] = system: Gram‐positive and Gram‐negative test bacteria; format: cell-based; conditions: geometric mean of MICs against the three Gram‐negative strains
E. coli ATCC 8739 [2] = format: cell-based, Escherichia coli; conditions: ATCC 8739, 24 h
Description: (§1) Peptide solutions were first mixed with bacterial cultures (5 × 10^5 CFU/mL) and incubated at 37°C for 24 h. The planktonic bacterial cells were gently removed by washing with PBS the next day, and methanol was utilised to fix the biofilm. Crystal violet (0.1% v/v), PBS and acetic acid (30%, v/v) were subsequently used to stain biofilm, remove remaining stains and re‐dissolve stains, respectively. The absorbance was determined at 595 nm. The experiments were conducted in three independent runs.

P. aeruginosa ATCC 9027 [3] = format: cell-based, Pseudomonas aeruginosa
Description: (§2) Antimicrobial assays were conducted using standard broth micro‐dilutions, as mentioned previously.[11] Gram‐positive bacteria S. aureus (ATCC 6538), Methicillin‐resistant S. aureus (MRSA; NCTC 12493), […] (NCTC 12697), Gram‐negative bacteria Escherichia coli (ATCC 8739), Klebsiella pneumoniae (ATCC 43816), Pseudomonas aeruginosa (ATCC 9027), Acinetobacter baumannii (ATCC BAA 747), and yeast, Candida albicans (ATCC 10231) were used in the test. The experiments were conducted in three independent runs.

C. albicans ATCC 10231 = format: cell-based, Candida albicans
Description: as §2

S. aureus ATCC 6538 [4] = format: cell-based, Staphylococcus aureus; conditions: ATCC 6538, 24 h
Description: as §1

K. pneumoniae ATCC 43816 [5] = format: cell-based, Klebsiella pneumoniae; conditions: ATCC 43816, 24 h
Description: as §1

S. aureus ATCC 6538 [6] = format: cell-based, Staphylococcus aureus; conditions: ATCC 6538, 24 h; remark: listed apart in the source
Description: (§3) The bacterial culture (5 × 10^5 CFU/mL) was cultured in a sterile 96‐well plate for 24 h to generate mature biofilms. The planktonic bacteria were removed by washing three times with sterile PBS buffer. Then, fresh broth with different peptide concentrations was added to each well and further incubated for another 24 h. Then, the plate was stained with crystal violet. The stain was solubilised in 30% acetic acid, and the absorbance was measured at 595 nm. The experiments were conducted in three independent runs.

MRSA NCTC 12493 [7] = format: cell-based, Methicillin‐resistant S. aureus; conditions: NCTC 12493, 24 h
Description: as §1

E. faecalis NCTC 12697 [8] = format: cell-based; conditions: NCTC 12697, 24 h
Description: as §1

K. pneumoniae ATCC 43816 [9] = format: cell-based, Klebsiella pneumoniae
Description: as §2

E. coli ATCC 8739 [10] = format: cell-based, Escherichia coli; conditions: ATCC 8739, 24 h; remark: listed apart in the source
Description: as §3

E. coli ATCC 8739 [11] = format: cell-based, Escherichia coli
Description: as §2

K. pneumoniae ATCC 43816 [12] = format: cell-based, Klebsiella pneumoniae; conditions: ATCC 43816, 24 h; remark: listed apart in the source
Description: as §3

MRSA NCTC 12493 [13] = format: cell-based, Methicillin‐resistant S. aureus; conditions: NCTC 12493, 24 h; remark: listed apart in the source
Description: as §3

S. aureus ATCC 6538 [14] = format: cell-based, Staphylococcus aureus
Description: as §2

E. faecalis NCTC 12697 [15] = format: cell-based; conditions: NCTC 12697, 24 h; remark: listed apart in the source
Description: as §3

[16] = system: Gram‐positive and Gram‐negative test bacteria; format: cell-based
Description: as §2

P. aeruginosa ATCC 9027 [17] = format: cell-based, Pseudomonas aeruginosa; conditions: ATCC 9027, 24 h
Description: as §3

horse erythrocytes = assay: Haemolytic activity; format: cell-based; conditions: 128 μM peptide; horse erythrocytes 2% v/v, 37°C, 2 h; 0.1% Triton X‐100 positive control; absorbance 570 nm; three independent runs
Description: The haemolytic activity of peptides was conducted using horse erythrocytes (2%, v/v). Peptide solutions were mixed with washed horse erythrocyte suspension at 37°C for 2 h. Triton X‐100 (0.1%) was used as a positive control. The mixture was then centrifuged at 930 g for 5 min. The absorbance of the supernatants was detected at 570 nm. The haemolysis rate was calculated using the formula: Haemolysis%=Sample group−negative group/positive group−negative group×100%.
This experiment was performed in three independent runs.

E. faecalis NCTC 12697 [18] = format: cell-based
MRSA NCTC 12493 [19] = format: cell-based, Methicillin‐resistant S. aureus
Description: as §2

P. aeruginosa ATCC 9027 [20] = format: cell-based, Pseudomonas aeruginosa; conditions: ATCC 9027, 24 h; remark: listed apart in the source
Description: as §1

SMILES: CC[C@H](C)[C@@H]1NC(=O)[C@H](CCCCN)NC(=O)[C@@H](NC(=O)[C@H](CC(C)C)NC(=O)[C@@H](NC(=O)[C@H](CCCCN)NC(=O)[C@@H]2CCCN2C(=O)[C@H](CC(C)C)NC(=O)[C@H](Cc2ccccc2)NC(=O)[C@H](CC(N)=O)NC(=O)[C@H](C)NC(=O)[C@H](C)NC(=O)[C@H](CC(C)C)NC(=O)CNC(=O)[C@H](C)NC(=O)[C@@H](NC(=O)[C@H](CC(C)C)NC(=O)[C@@H]2CCCN2C(=O)[C@@H](N)Cc2ccccc2)[C@@H](C)CC)[C@@H](C)CC)CSSC[C@@H](C(=O)O)NC(=O)[C@H](CCCCN)NC(=O)[C@H](CCCNC(=N)N)NC(=O)[C@H](C)NC1=O [OG9] (H-FPLIAGLAANFLPKILCKIARKC-OH; disulfide 17-23)
- GM MIC, G− [1]: 16 µM
- MBIC (E. coli ATCC 8739 [2]): 32 µM
- MBC (P. aeruginosa ATCC 9027 [3]): 16 µM (≈ 40 µg/mL)
- MIC (P. aeruginosa ATCC 9027 [3]): 16 µM (≈ 40 µg/mL)
- MBC (C. albicans ATCC 10231): > 128 µM
- MIC (C. albicans ATCC 10231): > 128 µM
- MBIC (S. aureus ATCC 6538 [4]): 16 µM
- MBIC (K. pneumoniae ATCC 43816 [5]): >128/>128 μM
- MBEC (S. aureus ATCC 6538 [6]): > 128 µM
- MBIC (MRSA NCTC 12493 [7]): 16 µM
- MBIC (E. faecalis NCTC 12697 [8]): 32 µM
- MBC (K. pneumoniae ATCC 43816 [9]): 64 µM (≈ 160 µg/mL)
- MIC (K. pneumoniae ATCC 43816 [9]): 64 µM (≈ 160 µg/mL)
- MBEC (E. coli ATCC 8739 [10]): > 128 µM
- MBC (E. coli ATCC 8739 [11]): 4 µM (≈ 10 µg/mL)
- MIC (E. coli ATCC 8739 [11]): 4 µM (≈ 10 µg/mL)
- MBEC (K. pneumoniae ATCC 43816 [12]): >128/>128 μM
- MBEC (MRSA NCTC 12493 [13]): > 128 µM
- MBC (S. aureus ATCC 6538 [14]): 8 µM (≈ 20 µg/mL)
- MIC (S. aureus ATCC 6538 [14]): 4 µM (≈ 10 µg/mL)
- MBEC (E. faecalis NCTC 12697 [15]): > 128 µM
- GM MIC, total bacteria ([16]; geometric mean of MICs against all test bacteria): 12.7 µM
- GM MIC, G+ ([16]; geometric mean of MICs against the three Gram‐positive strains): 10.1 µM
- MBEC (P. aeruginosa ATCC 9027 [17]): >128/>128 μM
- Haemolysis (horse erythrocytes): around 85%
- MBC (E. faecalis NCTC 12697 [18]): 16 µM (≈ 40 µg/mL)
- MIC (E. faecalis NCTC 12697 [18]): 16 µM (≈ 40 µg/mL)
- MBC (MRSA NCTC 12493 [19]): 32 µM (≈ 80 µg/mL)
- MIC (MRSA NCTC 12493 [19]): 16 µM (≈ 40 µg/mL)
- MBIC (P. aeruginosa ATCC 9027 [20]): >128/>128 μM
